From PubChem BioAssay (NCI)
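Protocol summary: plate cells (96-well), add compound at 5 concentrations, incubate 48 h, interpolate endpoints linearly. GI50 marks 50% less growth. TGI denotes the concentration required for complete inhibition of growth.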

Assays:
Test in all cases: NCI-60 cell line screen, 48 h
786-0 renal = test system: 786-0 renal
MDA-MB-231 breast = test system: MDA-MB-231 breast
NCI-H522 lung = test system: NCI-H522 lung
UACC-62 melanoma = test system: UACC-62 melanoma
HOP-92 NSCLC = test system: HOP-92 NSCLC
RPMI-8226 leukemia = test system: RPMI-8226 leukemia
UO-31 renal = test system: UO-31 renal
NCI-H460 lung = test system: NCI-H460 lung
RXF 393 renal = test system: RXF 393 renal
NCI-H23 lung = test system: NCI-H23 lung
NCI/ADR-RES ovarian = test system: NCI/ADR-RES ovarian
HS 578T breast = test system: HS 578T breast
SK-MEL-2 melanoma = test system: SK-MEL-2 melanoma
OVCAR-8 ovarian = test system: OVCAR-8 ovarian
OVCAR-3 ovarian = test system: OVCAR-3 ovarian
M14 melanoma = test system: M14 melanoma
HL-60(TB) leukemia = test system: HL-60(TB) leukemia
LOX IMVI melanoma = test system: LOX IMVI melanoma
HOP-62 NSCLC = test system: HOP-62 NSCLC
UACC-257 melanoma = test system: UACC-257 melanoma
A549 NSCLC = test system: A549 NSCLC
COLO 205 colon = test system: COLO 205 colon
SF-539 CNS = test system: SF-539 CNS
OVCAR-4 ovarian = test system: OVCAR-4 ovarian
HCC-2998 colon = test system: HCC-2998 colon
SF-295 CNS = test system: SF-295 CNS
SF-268 CNS = test system: SF-268 CNS
CCRF-CEM leukemia = test system: CCRF-CEM leukemia
MCF7 breast = test system: MCF7 breast
TK-10 renal = test system: TK-10 renal
MOLT-4 leukemia = test system: MOLT-4 leukemia
MALME-3M melanoma = test system: MALME-3M melanoma
SN12C renal = test system: SN12C renal
IGROV1 ovarian = test system: IGROV1 ovarian
PC-3 prostate = test system: PC-3 prostate
BT-549 breast = test system: BT-549 breast
CAKI-1 renal = test system: CAKI-1 renal
KM12 colon = test system: KM12 colon
NCI-H226 lung = test system: NCI-H226 lung
SW-620 colon = test system: SW-620 colon
SNB-75 CNS = test system: SNB-75 CNS
K-562 leukemia = test system: K-562 leukemia
SK-OV-3 ovarian = test system: SK-OV-3 ovarian
OVCAR-5 ovarian = test system: OVCAR-5 ovarian
SK-MEL-28 melanoma = test system: SK-MEL-28 melanoma
EKVX NSCLC = test system: EKVX NSCLC
HT29 colon = test system: HT29 colon
SNB-19 CNS = test system: SNB-19 CNS
U251 CNS = test system: U251 CNS
ACHN renal = test system: ACHN renal
T-47D breast = test system: T-47D breast
DU-145 prostate = test system: DU-145 prostate
A498 renal = test system: A498 renal
MDA-MB-435 = test system: MDA-MB-435
SR leukemia = test system: SR leukemia
SK-MEL-5 melanoma = test system: SK-MEL-5 melanoma
HCT-15 colon = test system: HCT-15 colon
HCT-116 colon = test system: HCT-116 colon

Question: With `COc1cccc(/C=C2\COc3ccc(O)c(O)c3C2=O)c1` as the compound, how does the GI50 (786-0 renal) read?
Answer: 1470 nM

Question: And the TGI (786-0 renal)?
Answer: 3860 nM

Question: And the GI50 (MDA-MB-231 breast)?
Answer: 1690 nM

Question: And the TGI (MDA-MB-231 breast)?
Answer: 6500 nM

Question: And the GI50 (NCI-H522 lung)?
Answer: 193 nM

Question: What about the TGI (NCI-H522 lung) of the same compound?
Answer: 448 nM

Question: And the GI50 (UACC-62 melanoma)?
Answer: 1530 nM

Question: What about the TGI (UACC-62 melanoma) of the same compound?
Answer: 3220 nM

Question: What about the GI50 (HOP-92 NSCLC) of the same compound?
Answer: 2110 nM

Question: And the TGI (HOP-92 NSCLC)?
Answer: 8010 nM

Question: What about the GI50 (RPMI-8226 leukemia) of the same compound?
Answer: 223 nM

Question: And the TGI (RPMI-8226 leukemia)?
Answer: 626 nM

Question: And the GI50 (UO-31 renal)?
Answer: 853 nM

Question: What about the TGI (UO-31 renal) of the same compound?
Answer: 2090 nM

Question: And the GI50 (NCI-H460 lung)?
Answer: 2440 nM

Question: What about the TGI (NCI-H460 lung) of the same compound?
Answer: 8190 nM

Question: What about the GI50 (RXF 393 renal) of the same compound?
Answer: 1190 nM

Question: What about the TGI (RXF 393 renal) of the same compound?
Answer: 2480 nM

Question: What about the GI50 (NCI-H23 lung) of the same compound?
Answer: 1580 nM

Question: What about the TGI (NCI-H23 lung) of the same compound?
Answer: 3340 nM

Question: And the GI50 (NCI/ADR-RES ovarian)?
Answer: 1640 nM

Question: What about the TGI (NCI/ADR-RES ovarian) of the same compound?
Answer: 5950 nM

Question: What about the GI50 (HS 578T breast) of the same compound?
Answer: 2900 nM

Question: What about the TGI (HS 578T breast) of the same compound?
Answer: 21800 nM

Question: What about the GI50 (SK-MEL-2 melanoma) of the same compound?
Answer: 2160 nM

Question: And the TGI (SK-MEL-2 melanoma)?
Answer: 5150 nM

Question: And the GI50 (OVCAR-8 ovarian)?
Answer: 1790 nM

Question: And the TGI (OVCAR-8 ovarian)?
Answer: 13200 nM

Question: And the GI50 (OVCAR-3 ovarian)?
Answer: 629 nM

Question: What about the TGI (OVCAR-3 ovarian) of the same compound?
Answer: 1930 nM

Question: And the GI50 (M14 melanoma)?
Answer: 1880 nM

Question: And the TGI (M14 melanoma)?
Answer: 4760 nM

Question: And the GI50 (HL-60(TB) leukemia)?
Answer: 405 nM

Question: And the TGI (HL-60(TB) leukemia)?
Answer: 3200 nM

Question: What about the GI50 (LOX IMVI melanoma) of the same compound?
Answer: 740 nM

Question: And the TGI (LOX IMVI melanoma)?
Answer: 2060 nM

Question: And the GI50 (HOP-62 NSCLC)?
Answer: 2800 nM

Question: And the TGI (HOP-62 NSCLC)?
Answer: 10400 nM

Question: And the GI50 (UACC-257 melanoma)?
Answer: 1730 nM

Question: What about the TGI (UACC-257 melanoma) of the same compound?
Answer: 4770 nM

Question: What about the GI50 (A549 NSCLC) of the same compound?
Answer: 2410 nM

Question: And the TGI (A549 NSCLC)?
Answer: 10300 nM

Question: What about the GI50 (COLO 205 colon) of the same compound?
Answer: 1960 nM

Question: What about the TGI (COLO 205 colon) of the same compound?
Answer: 3870 nM

Question: And the GI50 (SF-539 CNS)?
Answer: 1180 nM

Question: What about the TGI (SF-539 CNS) of the same compound?
Answer: 3060 nM

Question: What about the GI50 (OVCAR-4 ovarian) of the same compound?
Answer: 2180 nM

Question: What about the TGI (OVCAR-4 ovarian) of the same compound?
Answer: 9470 nM

Question: What about the GI50 (HCC-2998 colon) of the same compound?
Answer: 1600 nM

Question: What about the TGI (HCC-2998 colon) of the same compound?
Answer: 3030 nM

Question: And the GI50 (SF-295 CNS)?
Answer: 3200 nM

Question: What about the TGI (SF-295 CNS) of the same compound?
Answer: 10200 nM

Question: What about the GI50 (SF-268 CNS) of the same compound?
Answer: 1820 nM

Question: And the TGI (SF-268 CNS)?
Answer: 5170 nM

Question: And the GI50 (CCRF-CEM leukemia)?
Answer: 263 nM

Question: What about the TGI (CCRF-CEM leukemia) of the same compound?
Answer: 1110 nM

Question: What about the GI50 (MCF7 breast) of the same compound?
Answer: 438 nM

Question: And the TGI (MCF7 breast)?
Answer: 3120 nM

Question: And the GI50 (TK-10 renal)?
Answer: 1740 nM

Question: And the TGI (TK-10 renal)?
Answer: 3490 nM

Question: And the GI50 (MOLT-4 leukemia)?
Answer: 1640 nM

Question: And the TGI (MOLT-4 leukemia)?
Answer: 17700 nM

Question: What about the GI50 (MALME-3M melanoma) of the same compound?
Answer: 1450 nM

Question: And the TGI (MALME-3M melanoma)?
Answer: 3710 nM

Question: And the GI50 (SN12C renal)?
Answer: 1090 nM

Question: What about the TGI (SN12C renal) of the same compound?
Answer: 3620 nM

Question: What about the GI50 (IGROV1 ovarian) of the same compound?
Answer: 781 nM

Question: What about the TGI (IGROV1 ovarian) of the same compound?
Answer: 3630 nM

Question: What about the GI50 (PC-3 prostate) of the same compound?
Answer: 770 nM

Question: What about the TGI (PC-3 prostate) of the same compound?
Answer: 6040 nM

Question: And the GI50 (BT-549 breast)?
Answer: 1970 nM

Question: What about the TGI (BT-549 breast) of the same compound?
Answer: 5080 nM

Question: What about the GI50 (CAKI-1 renal) of the same compound?
Answer: 1280 nM

Question: And the TGI (CAKI-1 renal)?
Answer: 2710 nM

Question: And the GI50 (KM12 colon)?
Answer: 1440 nM

Question: What about the TGI (KM12 colon) of the same compound?
Answer: 3250 nM

Question: And the GI50 (NCI-H226 lung)?
Answer: 2030 nM

Question: What about the TGI (NCI-H226 lung) of the same compound?
Answer: 5380 nM

Question: And the GI50 (SW-620 colon)?
Answer: 1160 nM

Question: What about the TGI (SW-620 colon) of the same compound?
Answer: 3850 nM

Question: What about the GI50 (SNB-75 CNS) of the same compound?
Answer: 1420 nM

Question: What about the TGI (SNB-75 CNS) of the same compound?
Answer: 10300 nM

Question: What about the GI50 (K-562 leukemia) of the same compound?
Answer: 396 nM

Question: What about the TGI (K-562 leukemia) of the same compound?
Answer: > 100000 nM

Question: What about the GI50 (SK-OV-3 ovarian) of the same compound?
Answer: 3380 nM

Question: What about the TGI (SK-OV-3 ovarian) of the same compound?
Answer: 12700 nM

Question: What about the GI50 (OVCAR-5 ovarian) of the same compound?
Answer: 2180 nM

Question: And the TGI (OVCAR-5 ovarian)?
Answer: 4690 nM

Question: What about the GI50 (SK-MEL-28 melanoma) of the same compound?
Answer: 1780 nM

Question: And the TGI (SK-MEL-28 melanoma)?
Answer: 4130 nM

Question: What about the GI50 (EKVX NSCLC) of the same compound?
Answer: 1820 nM

Question: What about the TGI (EKVX NSCLC) of the same compound?
Answer: 3950 nM

Question: What about the GI50 (HT29 colon) of the same compound?
Answer: 2260 nM

Question: And the TGI (HT29 colon)?
Answer: 5070 nM

Question: What about the GI50 (SNB-19 CNS) of the same compound?
Answer: 1840 nM

Question: What about the TGI (SNB-19 CNS) of the same compound?
Answer: 5070 nM

Question: And the GI50 (U251 CNS)?
Answer: 1150 nM

Question: What about the TGI (U251 CNS) of the same compound?
Answer: 2490 nM

Question: And the GI50 (ACHN renal)?
Answer: 1250 nM

Question: What about the TGI (ACHN renal) of the same compound?
Answer: 2610 nM

Question: What about the GI50 (T-47D breast) of the same compound?
Answer: 1580 nM

Question: And the TGI (T-47D breast)?
Answer: 4380 nM

Question: What about the GI50 (DU-145 prostate) of the same compound?
Answer: 1680 nM

Question: And the TGI (DU-145 prostate)?
Answer: 4160 nM

Question: And the GI50 (A498 renal)?
Answer: 1710 nM

Question: And the TGI (A498 renal)?
Answer: 4000 nM

Question: And the GI50 (MDA-MB-435)?
Answer: 1460 nM

Question: What about the TGI (MDA-MB-435) of the same compound?
Answer: 4120 nM

Question: And the GI50 (SR leukemia)?
Answer: 359 nM

Question: What about the TGI (SR leukemia) of the same compound?
Answer: 6970 nM

Question: And the GI50 (SK-MEL-5 melanoma)?
Answer: 1440 nM

Question: And the TGI (SK-MEL-5 melanoma)?
Answer: 2760 nM

Question: And the GI50 (HCT-15 colon)?
Answer: 469 nM

Question: And the TGI (HCT-15 colon)?
Answer: 4910 nM

Question: What about the GI50 (HCT-116 colon) of the same compound?
Answer: 1250 nM

Question: And the TGI (HCT-116 colon)?
Answer: 2900 nM
